Laboratory results published in article PMC12084297, “Cytoplasmic connexin43-microtubule interactions promote glioblastoma stem-like cell maintenance and tumorigenicity” (Cell Death & Disease, 2025).

Tests used:
Type in all cases: cell-based, human
VTC-001 GSCs = experiment: Limiting dilution analysis (ELDA), VTC-001 GSCs; conditions: VTC-001, 100 μM every other day, 2 weeks; compared to JM2-scrambled or control
Method: (§1) GSCs and PDX GBM22 cells were plated as single cell suspension in low-attachment 96-well plates (GSCs: 100–500 cells per well; GBM22 cells: 500–2000 cells per well), using methods similar to those reported previously. Cells were then treated with peptides every other day. 2 weeks later, gliospheres were observed using phase contrast microscopy on a Revolve microscope (Echo Laboratories). The number of gliospheres was then determined, while the gliosphere size was assessed by diameter measurement. To evaluate stem cell frequency in GSCs, gliosphere formation assay was performed with limiting cell dilutions with cells plated at varying densities in low-attachment 96-well plates. Cells were treated with peptides every other day, and after 2 weeks, gliosphere-positive wells were observed and scored using phase contrast microscopy on a Revolve microscope. The stem cell frequency was analyzed using the online data analysis program ELDA (Extreme Limiting Dilution Analysis).
All quantification was performed on experiments repeated at least three times. Statistical analysis was conducted with GraphPad Prism (GraphPad Software). Data were analyzed for significance using Student’s t test, one-way ANOVA with Tukey’s multiple comparisons test, and presented as mean ± SD. […] Statistical significance between experimental groups was determined using chi-square (χ²) tests within the ELDA framework. […]

VTC-034 GSCs = experiment: Gliosphere formation assay, VTC-034 GSCs; conditions: VTC-034, 10, 50 or 100 μM every other day, 2 weeks
Method: as §1

[1] = tested on: Cx43/α-tubulin interaction; experiment: Co-immunoprecipitation with α-tubulin antibody: Cx43 interaction with α-tubulin; conditions: VTC-037 GSCs, 50 μM, 24 h, cross-linked (DTBP)
Method: Prior to lysis, cross-linking was completed by incubating cells in DTBP (dimethyl 3,3’-dithiobispropionimidate; 2 mM in PBS) for 30 min at 37 °C followed by a glycine quench (100 mM glycine in PBS) for 15 min at room temperature. Cross-linked samples were lysed in RIPA buffer supplemented with Halt^TM Protease and Phosphatase Inhibitor Cocktail as described above, but without sonication. Co-immunoprecipitation (co-IP) assays were also performed without cross-linking; non-cross-linked samples were lysed using a co-IP lysis buffer (0.5% Triton X-100, 50 mM Tris HCl, 150 mM NaCl, 1 mM EDTA, 1 mM EGTA, 1 mM DTT, 0.1 mM Na3VO4, and 1 mM NaF) supplemented with Halt^TM Protease and Phosphatase Inhibitor Cocktail, without sonication. Protein concentration was quantified using the DC protein assay and a standard curve obtained with increasing concentrations of BSA, and 500 μg of total protein was used per reaction for co-IP. Inputs were removed prior to co-IP and denatured in Bolt LDS sample buffer as described above. Remaining protein lysates were incubated with Protein G Sepharose^TM 4 Fast Flow beads (GE Healthcare) for pre-clearance for 30 min at 4 °C. Samples were incubated with 2 μg of mouse anti-α-tubulin (MilliporeSigma, T6199) for cross-linked samples or mouse anti-Cx43 antibody (EMD Millipore; MAB3067) for non-cross-linked samples for 90 min at 4 °C. […]

VTC-037 GSCs = experiment: MTS viability, VTC-037 GSCs; conditions: 4 days
Method: Cells were plated in 96-well plates (2000–5000 cells per well) and treated the following day with TMZ (10, 50, or 100 μM), antennapedia, JM2-scrambled, or JM2 (10, 50, or 100 μM). After 4 days, cell viability was monitored following addition of MTS reagent (Promega) according to manufacturer’s instructions. The absorbance at 490 nm was measured using a SpectraMax i3 or iD3 microplate reader (Molecular Devices). For the caspase 3/7 activity assay, cells were plated in 96-well plates (2000 cells per well) and treated with TMZ or peptides as described above. The activity of caspase 3/7 was measured after 48 h using the Caspase-Glo® 3/7 assay (Promega) following the manufacturer’s instructions. Fold change of caspase 3/7 activity was defined as the ratio of caspase 3/7 luminescence in treated cells compared to controls.

HES1 mRNA = HES1 mRNA by RT-qPCR, VTC-001 GSCs; conditions: 50 μM, 24 h, compared to antennapedia alone
Method: RNA was extracted using the PureLink^TM RNA mini extraction kit (Thermo Fisher) and on-column DNA digestion was completed using PureLink^TM DNase according to the manufacturer’s instructions. RNA was reverse transcribed to generate cDNA using the iScript^TM Reverse Transcription SuperMix for RT-qPCR kit (Bio-Rad Laboratories). Real-time PCR was performed using the SYBR select Master Mix for CFX (Thermo Fisher) in hard-shell 96-well PCR plates (Bio-Rad Laboratories) on a CFX Connect Real Time System (Bio-Rad Laboratories). Primer sequences used were: hNOTCH1_Fwd: 5’-CGCACAAGGTGTCTTCCAG-3’; hNOTCH1_Rev: 5’-CGGCGTGTGAGTTGATGA-3’; hHES1_Fwd: 5’-GGCTGGAGAGGCGGCTAA-3’; hHES1_Rev: 5’-[…]-3’; hHEY1_Fwd: 5’-[…]-3’; hHEY1_Rev: 5’-[…]-3’.

VFFKGVKDRVKGRSD [JM2]
GSC frequency / self-renewal (limiting dilution) (VTC-001 GSCs): significant decrease in VTC-001, VTC-034, and VTC-037 GSC frequency
GSC-dependent gliosphere formation (VTC-034 GSCs): inhibits VTC-001, VTC-034, and VTC-037 GSC-dependent gliosphere formation in a dose-dependent manner
Gliosphere size (diameter) (VTC-034 GSCs; n = 4): significant decrease in gliosphere size
Gliosphere number (VTC-034 GSCs; n = 6): significant decrease in gliosphere size as assessed by diameter measurement (Fig. 6B), and number
Cx43 interaction with α-tubulin (co-IP) [1]: decrease in Cx43 interaction with α-tubulin
GSC viability with JM2 alone in combination experiment (MTS) (VTC-037 GSCs; VTC-037 adherent GSCs, 100 μM): significantly decreased GSC viability
GSC survival (MTS) (VTC-037 GSCs; VTC-037 adherent GSCs, 10, 50 or 100 μM): significantly decreased VTC-001, VTC-034, and VTC-037 GSC survival when cultured as adherent cells in a dose-dependent manner
Hes1 mRNA expression (HES1 mRNA): significantly decreased the expression of Notch downstream targets Hes1 and Hey1 at the transcription level
